Experiments:
sourgrass = test: Test D sourgrass; type: in vivo, Trichachne insularis; conditions: Preemergence, 0 to 100 scale
In short: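 Visual injury ratings, 0 = no injury to 100 = complete control, taken 14 to 21 days after treatment. Test chemicals were in a surfactant-containing non-phytotoxic solvent; preemergence treatments went onto the sandy loam surface of seeded greenhouse pots within one day of sowing.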

Green foxtail = test: Test D green foxtail; type: in vivo; conditions: Rate 500 g/ha; Preemergence; 0 to 100 scale
Description: Seeds, tubers, or plant parts of Alexandergrass (Brachiaria plantaginea), bermuda-grass (Cynodon dactylon), common pursiane (Portulaca oleracea), common ragweed (Ambrosia elatior), common groundsel (Senecio vulgaris), dallisgrass (Paspalum dilatatum), goosegrass (Eleusine indica), guineagrass (Panicum maximum), itchgrass (Rottboellia exaltata), Johnson grass (Sorghum halepense), large crabgrass (Digitaria sanguinalis), pitted morningglory (Ipomoea lacunosa), purple nutsedge (Cyperus rotundus), sandbur (Cenchrus echinatus), sourgrass (Trichachne insularis), Spanishneedles (Bidens bipinnata), surinam grass (Brachiaria decumbens) and tall mallow (Malva sylvestris) were planted into greenhouse pots of flats containing greenhouse planting medium. Plant species were grown in separate pots or individual compartments. Preemergence applications were made within one day of planting the seed or plant part.
Test chemicals were formulated in a non-phytotoxic solvent mixture which included a surfactant and applied preemergence to the surface of the pot containing seeds in a sandy loam soil. Untreated control pots and treated pots were placed in the greenhouse for growth and visually evaluated for injury 14 to 21 days after herbicide application. Plant response ratings, summarized in Table C, are based on a 0 to 100 scale where 0 is no injury and 100 is complete control. A dash (−) response means no test result.

cotton = test: Test C postemergence cotton; type: in vivo, Gossypium hirsutum; conditions: 0 to 100 scale, 0 no effect, 100 complete control
In short: (§1)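 Foliar postemergence treatment of greenhouse plants grown in 60:40 sandy loam:potting mix; compounds delivered in non-phytotoxic solvent with surfactant. Evaluation is visual, 0–100, after ~14–21 d.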

lambsquarters = test: Test C postemergence lambsquarters; type: in vivo, Chenopodium album; conditions: 0 to 100 scale, 0 no effect, 100 complete control
Protocol: (§2) Compounds evaluated in this test were formulated in a non-phytotoxic solvent mixture which included a surfactant and applied to plants that were grown for various periods of time before treatment (postemergence application). A mixture of sandy loam soil and greenhouse potting mix in a 60:40 ratio was used for the postemergence test.
(§3) Plantings of these crops and weed species were adjusted to produce plants of appropriate size for the postemergence test. All plant species were grown using normal greenhouse practices. Crop and weed species include arrowleaf sida (Sida rhombifolia), barnyardgrass (Echinochloa crus-galli), cocklebur (Xanthium strumarium), common ragweed (Ambrosia elatior), corn (Zea mays), cotton (Gossypium hirsutum), eastern black nightshade (Solanum ptycanthum), fall panicum (Panicum dichotomiflorum), field bindweed (Convolvulus arvensis), giant foxtail (Setaria faberii), hairy beggarticks (Bidens pilosa), ivyleaf morningglory (Ipomoea hederacea), johnsongrass (Sorghum halepense), ladysthumb smartweed (Polygonum persicaria), lambsquarters (Chenopodium album), large crabgrass (Digitaria sanguinalis), purple nutsedge (Cyperus rotundus), redroot pigweed (Amaranthus retroflexus), soybean (Glycine max), surinam grass (Brachiaria decumbens), velvetleaf (Abutilon theophrasti) and wild poinsettia (Euphorbia heterophylla).
(§4) Treated plants and untreated controls were maintained in a greenhouse for approximately 14, to 21 days, after which all treated plants were compared to untreated controls and visually evaluated. Plant response ratings, summarized in Table C, were based upon a 0 to 100 scale where 0 was no effect and 100 was complete control. A dash response (−) means no test result.

barnyardgrass = test: Test C postemergence barnyardgrass; type: in vivo, Echinochloa crus-galli; conditions: 0 to 100 scale, 0 no effect, 100 complete control
In short: as §1

large crabgrass = test: Test C postemergence large crabgrass; type: in vivo, Digitaria sanguinalis; conditions: 0 to 100 scale, 0 no effect, 100 complete control
Protocol: as §2, §3, §4

wild poinsettia = test: Test C postemergence wild poinsettia; type: in vivo, Euphorbia heterophylla; conditions: 0 to 100 scale, 0 no effect, 100 complete control
Protocol: as §2, §3, §4

arrowleaf sida = test: Test C postemergence arrowleaf sida; type: in vivo, Sida rhombifolia; conditions: 0 to 100 scale, 0 no effect, 100 complete control
Protocol: as §2, §3, §4

ivyleaf morningglory = test: Test C postemergence ivyleaf morningglory; type: in vivo, Ipomoea hederacea; conditions: 0 to 100 scale, 0 no effect, 100 complete control
In short: as §1

cocklebur = test: Test C postemergence cocklebur; type: in vivo, Xanthium strumarium; conditions: 0 to 100 scale, 0 no effect, 100 complete control
Protocol: as §2, §3, §4

giant foxtail = test: Test C postemergence giant foxtail; type: in vivo, Setaria faberii; conditions: 0 to 100 scale, 0 no effect, 100 complete control
Protocol: as §2, §3, §4

fall panicum = test: Test C postemergence fall panicum; type: in vivo, Panicum dichotomiflorum; conditions: 0 to 100 scale, 0 no effect, 100 complete control
In short: as §1

johnsongrass = test: Test C postemergence johnsongrass; type: in vivo, Sorghum halepense; conditions: 0 to 100 scale, 0 no effect, 100 complete control
Protocol: as §2, §3, §4

velvetleaf = test: Test C postemergence velvetleaf; type: in vivo, Abutilon theophrasti; conditions: 0 to 100 scale, 0 no effect, 100 complete control
Protocol: as §2, §3, §4

eastern black nightshade = test: Test C postemergence eastern black nightshade; type: in vivo, Solanum ptycanthum; conditions: 0 to 100 scale, 0 no effect, 100 complete control
In short: as §1

purple nutsedge = test: Test C postemergence purple nutsedge; type: in vivo, Cyperus rotundus; conditions: 0 to 100 scale, 0 no effect, 100 complete control
Protocol: as §2, §3, §4

surinam grass = test: Test C postemergence surinam grass; type: in vivo, Brachiaria decumbens; conditions: 0 to 100 scale, 0 no effect, 100 complete control
Protocol: as §2, §3, §4

[1] = Rate 64 g/ha, 0 no injury, 100 complete control

CCc1ccccc1-n1c(=O)on(C(=O)N(c2ccc(F)cc2)C(C)C)c1=O [Compound 34]
100: Sourgrass plant response rating (sourgrass; [1]) | Sourgrass plant response rating (sourgrass; Rate 125 g/ha, 0 no injury, 100 complete control) | Plant response rating, Sourgrass (sourgrass; Rate 250 g/ha)
98: Plant response rating, Sourgrass (sourgrass; Rate 32 g/ha, 0 no injury, 100 complete control)

Cc1ccccc1-n1c(=O)on(C(=O)N(c2ccccc2)C(C)C)c1=O [Compound 36]
100: Plant response rating, Green foxtail (Green foxtail)

CC(C)N(C(=O)n1oc(=O)n(Cc2ccccc2)c1=O)c1ccccc1 [Compound 94]
85: Plant response rating Wild poinsettia (wild poinsettia; Rate 1120 g/ha)
20: Plant response rating Cotton (cotton; Rate 140 g/ha) | Plant response rating, Velvetleaf (velvetleaf; Rate 560 g/ha)
75: Plant response rating E. blacknightsh (eastern black nightshade; Rate 560 g/ha)
0: Plant response rating Lambsquarters (lambsquarters; Rate 140 g/ha) | Plant response rating, Barnyardgrass (barnyardgrass; Rate 140 g/ha) | Plant response rating, Barnyardgrass (barnyardgrass; Rate 280 g/ha) | Plant response rating Large crabgrass (large crabgrass; Rate 140 g/ha) | Plant response rating Large crabgrass (large crabgrass; Rate 280 g/ha) | Plant response rating Wild poinsettia (wild poinsettia; Rate 140 g/ha) | Plant response rating Wild poinsettia (wild poinsettia; Rate 280 g/ha) | Plant response rating I. morningglory (ivyleaf morningglory; Rate 140 g/ha) | Plant response rating, Cocklebur (cocklebur; Rate 140 g/ha) | Plant response rating, Cocklebur (cocklebur; Rate 280 g/ha) | Plant response rating, Giant foxtail (giant foxtail; Rate 140 g/ha) | Plant response rating, Giant foxtail (giant foxtail; Rate 280 g/ha) | Plant response rating Fall panicum (fall panicum; Rate 140 g/ha) | Plant response rating Fall panicum (fall panicum; Rate 280 g/ha) | Plant response rating Johnsongrass (johnsongrass; Rate 140 g/ha) | Plant response rating Johnsongrass (johnsongrass; Rate 280 g/ha) | Plant response rating Johnsongrass (johnsongrass; Rate 560 g/ha) | Plant response rating Johnsongrass (johnsongrass; Rate 1120 g/ha) | Plant response rating E. blacknightsh (eastern black nightshade; Rate 140 g/ha) | Plant response rating, Purple nutsedge (purple nutsedge; Rate 140 g/ha) | Plant response rating, Purple nutsedge (purple nutsedge; Rate 280 g/ha) | Plant response rating, Purple nutsedge (purple nutsedge; Rate 560 g/ha) | Plant response rating, Purple nutsedge (purple nutsedge; Rate 1120 g/ha) | Plant response rating Surinam grass (surinam grass; Rate 140 g/ha) | Plant response rating Surinam grass (surinam grass; Rate 280 g/ha) | Plant response rating Surinam grass (surinam grass; Rate 560 g/ha)
90: Plant response rating I. morningglory (ivyleaf morningglory; Rate 560 g/ha)
70: Plant response rating Cotton (cotton; Rate 280 g/ha) | Plant response rating Cotton (cotton; Rate 560 g/ha) | Plant response rating Large crabgrass (large crabgrass; Rate 560 g/ha) | Plant response rating Fall panicum (fall panicum; Rate 1120 g/ha)
30: Plant response rating Lambsquarters (lambsquarters; Rate 1120 g/ha) | Plant response rating, Barnyardgrass (barnyardgrass; Rate 560 g/ha)
5: Plant response rating Lambsquarters (lambsquarters; Rate 280 g/ha) | Plant response rating, Velvetleaf (velvetleaf; Rate 140 g/ha) | Plant response rating, Velvetleaf (velvetleaf; Rate 280 g/ha)
80: Plant response rating Cotton (cotton; Rate 1120 g/ha) | Plant response rating Arrowleaf sida (arrowleaf sida; Rate 560 g/ha) | Plant response rating Arrowleaf sida (arrowleaf sida; Rate 1120 g/ha)
10: Plant response rating Lambsquarters (lambsquarters; Rate 560 g/ha) | Plant response rating Arrowleaf sida (arrowleaf sida; Rate 280 g/ha) | Plant response rating I. morningglory (ivyleaf morningglory; Rate 280 g/ha) | Plant response rating, Giant foxtail (giant foxtail; Rate 560 g/ha) | Plant response rating Fall panicum (fall panicum; Rate 560 g/ha) | Plant response rating Surinam grass (surinam grass; Rate 1120 g/ha)
65: Plant response rating, Barnyardgrass (barnyardgrass; Rate 1120 g/ha)
40: Plant response rating, Giant foxtail (giant foxtail; Rate 1120 g/ha) | Plant response rating, Velvetleaf (velvetleaf; Rate 1120 g/ha) | Plant response rating E. blacknightsh (eastern black nightshade; Rate 280 g/ha)
100: Plant response rating, Green foxtail (Green foxtail)
60: Plant response rating Wild poinsettia (wild poinsettia; Rate 560 g/ha)
95: Plant response rating E. blacknightsh (eastern black nightshade; Rate 1120 g/ha)

Cc1ccc(N(C(=O)n2oc(=O)n(C(C)C)c2=O)C(C)C)cc1 [Compound 132]
100: Plant response rating, Sourgrass (sourgrass; [1])
40: Plant response rating Cotton (cotton; Rate 1120 g/ha) | Plant response rating Large crabgrass (large crabgrass; Rate 560 g/ha)
30: Plant response rating Fall panicum (fall panicum; Rate 280 g/ha) | Plant response rating Surinam grass (surinam grass; Rate 1120 g/ha)
20: Plant response rating Cotton (cotton; Rate 560 g/ha)
5: Plant response rating Cotton (cotton; Rate 140 g/ha)
0: Plant response rating Lambsquarters (lambsquarters; Rate 140 g/ha) | Plant response rating Lambsquarters (lambsquarters; Rate 280 g/ha) | Plant response rating Lambsquarters (lambsquarters; Rate 560 g/ha) | Plant response rating Lambsquarters (lambsquarters; Rate 1120 g/ha) | Plant response rating Large crabgrass (large crabgrass; Rate 140 g/ha) | Plant response rating Wild poinsettia (wild poinsettia; Rate 140 g/ha) | Plant response rating Wild poinsettia (wild poinsettia; Rate 280 g/ha) | Plant response rating Wild poinsettia (wild poinsettia; Rate 560 g/ha) | Plant response rating Wild poinsettia (wild poinsettia; Rate 1120 g/ha) | Plant response rating Arrowleaf sida (arrowleaf sida; Rate 140 g/ha) | Plant response rating Arrowleaf sida (arrowleaf sida; Rate 280 g/ha) | Plant response rating I. morningglory (ivyleaf morningglory; Rate 140 g/ha) | Plant response rating I. morningglory (ivyleaf morningglory; Rate 280 g/ha) | Plant response rating I. morningglory (ivyleaf morningglory; Rate 560 g/ha) | Plant response rating I. morningglory (ivyleaf morningglory; Rate 1120 g/ha) | Plant response rating, Cocklebur (cocklebur; Rate 140 g/ha) | Plant response rating, Cocklebur (cocklebur; Rate 280 g/ha) | Plant response rating, Cocklebur (cocklebur; Rate 560 g/ha) | Plant response rating, Cocklebur (cocklebur; Rate 1120 g/ha) | Plant response rating, Giant foxtail (giant foxtail; Rate 140 g/ha) | Plant response rating, Giant foxtail (giant foxtail; Rate 280 g/ha) | Plant response rating, Giant foxtail (giant foxtail; Rate 560 g/ha) | Plant response rating, Giant foxtail (giant foxtail; Rate 1120 g/ha) | Plant response rating Fall panicum (fall panicum; Rate 140 g/ha) | Plant response rating Johnsongrass (johnsongrass; Rate 140 g/ha) | Plant response rating Johnsongrass (johnsongrass; Rate 280 g/ha) | Plant response rating Johnsongrass (johnsongrass; Rate 560 g/ha) | Plant response rating, Velvetleaf (velvetleaf; Rate 140 g/ha) | Plant response rating, Velvetleaf (velvetleaf; Rate 280 g/ha) | Plant response rating, Velvetleaf (velvetleaf; Rate 560 g/ha) | Plant response rating, Velvetleaf (velvetleaf; Rate 1120 g/ha) | Plant response rating E. blacknightsh (eastern black nightshade; Rate 140 g/ha) | Plant response rating E. blacknightsh (eastern black nightshade; Rate 280 g/ha) | Plant response rating E. blacknightsh (eastern black nightshade; Rate 560 g/ha) | Plant response rating E. blacknightsh (eastern black nightshade; Rate 1120 g/ha) | Plant response rating, Purple nutsedge (purple nutsedge; Rate 140 g/ha) | Plant response rating, Purple nutsedge (purple nutsedge; Rate 280 g/ha) | Plant response rating, Purple nutsedge (purple nutsedge; Rate 560 g/ha) | Plant response rating, Purple nutsedge (purple nutsedge; Rate 1120 g/ha) | Plant response rating Surinam grass (surinam grass; Rate 140 g/ha) | Plant response rating Surinam grass (surinam grass; Rate 280 g/ha) | Plant response rating Surinam grass (surinam grass; Rate 560 g/ha)
95: Plant response rating, Barnyardgrass (barnyardgrass; Rate 1120 g/ha)
10: Plant response rating Cotton (cotton; Rate 280 g/ha) | Plant response rating Large crabgrass (large crabgrass; Rate 280 g/ha) | Plant response rating Arrowleaf sida (arrowleaf sida; Rate 560 g/ha)
60: Plant response rating Johnsongrass (johnsongrass; Rate 1120 g/ha)
50: Plant response rating, Barnyardgrass (barnyardgrass; Rate 140 g/ha) | Plant response rating, Barnyardgrass (barnyardgrass; Rate 280 g/ha) | Plant response rating Fall panicum (fall panicum; Rate 560 g/ha) | Plant response rating Fall panicum (fall panicum; Rate 1120 g/ha)
80: Plant response rating, Barnyardgrass (barnyardgrass; Rate 560 g/ha) | Plant response rating Large crabgrass (large crabgrass; Rate 1120 g/ha) | Plant response rating Arrowleaf sida (arrowleaf sida; Rate 1120 g/ha)

Source: patent publication US6737383B1, “Herbicidal oxadiazolidines” (priority 1999, dated 2004)
